Results reported in patent US12091411B2, “IRAK degraders and uses thereof” (Kymera Therapeutics, Inc., priority 2022, dated 2024).
Where two headings read alike, the source gives them in different places.

Molecular target: T1, IRAK4 (Homo sapiens, UniProt Q9NWZ3)
T1 construct: Degradation of IRAK4 in OCI-LY10 was quantitatively measured using Meso Scale Discovery technology; endogenous in cells; host or cells: OCI-LY10
T1 sequence (Q9NWZ3 1-460): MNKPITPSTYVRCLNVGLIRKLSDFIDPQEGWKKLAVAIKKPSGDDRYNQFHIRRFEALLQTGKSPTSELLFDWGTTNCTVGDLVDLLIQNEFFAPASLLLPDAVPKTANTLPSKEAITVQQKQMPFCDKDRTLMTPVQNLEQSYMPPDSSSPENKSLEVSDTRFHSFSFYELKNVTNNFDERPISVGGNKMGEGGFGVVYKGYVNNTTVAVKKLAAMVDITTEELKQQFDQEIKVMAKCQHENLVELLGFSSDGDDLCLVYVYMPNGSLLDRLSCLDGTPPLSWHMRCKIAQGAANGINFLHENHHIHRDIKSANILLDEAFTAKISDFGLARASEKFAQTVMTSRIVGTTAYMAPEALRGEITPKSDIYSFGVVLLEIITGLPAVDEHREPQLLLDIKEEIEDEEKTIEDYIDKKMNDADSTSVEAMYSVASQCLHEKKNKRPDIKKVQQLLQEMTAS
Assay: IRAK4 MSD Degradation in OCI-LY10
Assay type: cell-based
Details: OCI-LY10 cells, MSD
Method in brief: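 OCI-LY10 cells exposed to 8-point 1:3 compound series (top 1 to 10 μM) for 4 to 24 h at 37 °C, 5% CO2. Lysate IRAK4 quantified by MSD sandwich immunoassay. DC50 from three-parameter logistic fit, binned A (<0.01 μM) to D (>0.2 μM or not tested).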

[1] = 4 hrs incubation, read-out: IRAK4 degradation in OCI-LY10 at 4 hrs: DC50
[2] = 24 hrs incubation, read-out: IRAK4 degradation in OCI-LY10 at 24 hrs: DC50

Row | DC50 [1] | DC50 [2] | Structure (SMILES)
1 | > 200 nM | < 10 nM | Cn1c(=O)n(C2CCC(=O)NC2=O)c2cccc([C@@H]3CCN(C[C@H]4CC[C@H](n5cc6cc(NC(=O)c7cccc(C#N)n7)ncc6n5)CC4)C[C@H]3F)c21 (some centres unmarked) [I-637]
2 | > 200 nM | > 200 nM | Cn1c(=O)n(C2CCC(=O)NC2=O)c2cccc(C#CC[C@H]3CN(CC4CCC(n5cc(NC(=O)c6cnn7ccc(N8C[C@H]9C[C@@H]8CO9)nc67)c(C(F)F)n5)CC4)CCO3)c21 (some centres unmarked) [I-379]
3 | > 200 nM | > 200 nM | CN(C[C@H]1CC[C@H](n2cc(NC(=O)c3cnn4ccc(C5COC5)nc34)c(C(F)F)n2)CC1)C1CCN(c2cccc3c2n(C)c(=O)n3C2CCC(=O)NC2=O)CC1 (some centres unmarked) [I-361]
4 | > 200 nM | 10 to 100 nM | CN(C[C@H]1CC[C@H](n2cc(NC(=O)c3cnn4ccc(N5CCOCC5)nc34)c(C(F)F)n2)CC1)C1CCN(c2cccc3c2n(C)c(=O)n3C2CCC(=O)NC2=O)CC1(F)F (some centres unmarked) [I-522]
5 | > 200 nM | > 200 nM | Cn1c(=O)n(C2CCC(=O)NC2=O)c2ccc(C3CCN(C[C@H]4CC[C@H](n5cc6cc(NC(=O)c7cccc(C(F)(F)F)n7)c(C#N)cc6n5)CC4)CC3(F)F)cc21 (some centres unmarked) [I-568]
6 | > 200 nM | > 200 nM | Cn1c(=O)n(C2CCC(=O)NC2=O)c2cccc(C#CCN3CCN(C[C@H]4CC[C@H](n5cc(NC(=O)c6cccc(C#N)n6)c(C(C)(C)O)n5)CC4)CC3)c21 (some centres unmarked) [I-263]
7 | < 10 nM | > 200 nM | C[C@H]1CN(C[C@H]2CC[C@H](n3cc(NC(=O)c4cnn5ccc(N6C[C@H]7C[C@@H]6CO7)nc45)c(C(F)F)n3)CC2)CC[C@@H]1OCC#Cc1cccc2c1n(C)c(=O)n2[C@H]1CCC(=O)NC1=O (single isomer, unassigned) [I-67]
8 | 10 to 100 nM | > 200 nM | COc1cc2nn([C@H]3CC[C@H](CN4CCC5(CC4)CCN(c4cccc6c4n(C)c(=O)n6C4CCC(=O)NC4=O)CC5)CC3)cc2cc1NC(=O)c1cncc([S+](C)[O-])c1 (some centres unmarked) [I-150]
9 | < 10 nM | < 10 nM | COc1cc2nn([C@H]3CC[C@H](CN4CCC5(CC4)CCN(c4c(OC)ccc6c4n(C)c(=O)n6C4CCC(=O)NC4=O)CC5)CC3)cc2cc1NC(=O)c1cncc(C#N)c1 (some centres unmarked) [I-87]
10 | > 200 nM | > 200 nM | Cn1c(=O)n(C2CCC(=O)NC2=O)c2ccc(C3CN(C4CCN([C@H]5CC[C@H](n6cc(NC(=O)c7cnn8ccc(N9C[C@H]%10C[C@@H]9CO%10)nc78)c(C(F)F)n6)CC5)CC4(F)F)C3)c(F)c21 (some centres unmarked) [I-752]
11 | > 200 nM | > 200 nM | COc1nn([C@H]2CC[C@H](CN3CCC(OCC#Cc4cccc5c4n(C)c(=O)n5C4CCC(=O)NC4=O)CC3)CC2)cc1NC(=O)c1cnn2ccc(N3C[C@H]4C[C@@H]3CO4)nc12 (some centres unmarked) [I-169]
12 | > 200 nM | > 200 nM | Cn1c(=O)n(C2CCC(=O)NC2=O)c2cccc(C#CCOC3CCN(C[C@H]4CC[C@H](n5cc(NC(=O)c6cnn7ccc(N8CCOC(C(F)(F)F)C8)nc67)c(C(F)F)n5)CC4)CC3)c21 (some centres unmarked) [I-333]
13 | > 200 nM | < 10 nM | Cn1c(=O)n(C2CCC(=O)NC2=O)c2cccc([C@@H]3CCN(C[C@]4(O)CC[C@@H](n5cc6cc(NC(=O)c7cccc(C(F)(F)F)n7)ccc6n5)CC4)C[C@H]3F)c21 (some centres unmarked) [I-690]
14 | > 200 nM | > 200 nM | Cn1c(=O)n(C2CCC(=O)NC2=O)c2cccc(C[C@H]3CN(Cc4ccc(-n5cc(NC(=O)c6cnn7cccnc67)c(C(F)F)n5)cc4)CCO3)c21 (some centres unmarked) [I-382]
15 | > 200 nM | > 200 nM | Cn1c(=O)n(C2CCC(=O)NC2=O)c2cccc(O[C@H]3C[C@H](N4CCN(C[C@H]5CC[C@H](n6cc(NC(=O)c7cnn8ccc(N9C[C@H]%10CC9CO%10)nc78)c(C(F)F)n6)CC5)CC4)C3)c21 (some centres unmarked) [I-577]
16 | > 200 nM | > 200 nM | Cn1c(NC(=O)c2cccc(C(F)(F)F)n2)cc2cn([C@H]3CC[C@H](CN4CCN(c5cccc6c5n(C)c(=O)n6C5CCC(=O)NC5=O)CC4)CC3)nc2c1=O (some centres unmarked) [I-767]
17 | > 200 nM | > 200 nM | O=C1CCN(c2ccc(C#CCN3CCN(C[C@H]4CC[C@@H](n5cc(NC(=O)c6cnn7ccc(N8C[C@@H]9C[C@H]8CO9)nc67)c(C(F)F)n5)CC4)CC3)cc2)C(=O)N1 [I-124]
18 | > 200 nM | > 200 nM | CN(C[C@H]1CC[C@H](n2cc(NC(=O)c3cnn4ccc(N5CCC(C)(C)CC5)nc34)c(C(F)F)n2)CC1)C1CCN(c2cccc3c2n(C)c(=O)n3C2CCC(=O)NC2=O)CC1(F)F (some centres unmarked) [I-516]
19 | < 10 nM | < 10 nM | C[C@@H]1CN(c2ccn3ncc(C(=O)Nc4cn([C@H]5CC[C@H](CN(C)C6CCN(c7cccc8c7n(C)c(=O)n8C7CCC(=O)NC7=O)CC6)CC5)nc4C(F)F)c3n2)C[C@@H](C)O1 (some centres unmarked) [I-440]

Row | DC50 [1] | DC50 [2] | Structure (SMILES)
20 | 10 to 100 nM | > 200 nM | Cn1c(=O)n(C2CCC(=O)NC2=O)c2cccc(C#CCN3C4CC3CN(C[C@H]3CC[C@H](n5cc(NC(=O)c6cnn7ccc(N8C[C@H]9C[C@@H]8CO9)nc67)c(C(F)F)n5)CC3)C4)c21 (some centres unmarked) [I-345]
21 | > 200 nM | < 10 nM | Cn1c(=O)n(C2CCC(=O)NC2=O)c2ccc(N3CC(CO[C@H]4CCN(C[C@H]5CC[C@H](n6cc(NC(=O)c7cnn8ccc(N9C[C@H]%10C[C@@H]9CO%10)nc78)c(C(F)F)n6)CC5)C[C@H]4F)C3)c(F)c21 (single isomer, unassigned) [I-738]
22 | > 200 nM | > 200 nM | CN(C[C@H]1CC[C@H](n2cc(NC(=O)c3cnn4ccc(N5CC(F)(F)C5)nc34)c(C(F)F)n2)CC1)C1CCN(c2cccc3c2n(C)c(=O)n3C2CCC(=O)NC2=O)CC1(F)F (some centres unmarked) [I-507]
23 | > 200 nM | < 10 nM | Cn1c(=O)n(C2CCC(=O)NC2=O)c2cccc(C#CCN3CCN(C[C@H]4CC[C@H](n5cc(NC(=O)c6cnn7ccc(N8CCOC(F)(F)C8)nc67)c(C(F)F)n5)CC4)CC3)c21 (some centres unmarked) [I-703]
24 | > 200 nM | > 200 nM | Cn1c(=O)n(C2CCC(=O)NC2=O)c2cccc(N3CC(O[C@@H]4CCN(C[C@H]5CC[C@H](n6cc(NC(=O)c7cnn8ccc(N9C[C@H]%10C[C@@H]9CO%10)nc78)c(C(F)F)n6)CC5)C[C@H]4F)C3)c21 (some centres unmarked) [I-582]
25 | > 200 nM | > 200 nM | Cn1c(=O)n(C2CCC(=O)NC2=O)c2cccc([C@H]3CCN(C[C@H]4CC[C@H](n5cc6cc(NC(=O)c7cccc(C(F)F)n7)ncc6n5)CC4)C[C@H]3F)c21 (some centres unmarked) [I-643]
26 | > 200 nM | > 200 nM | Cn1c(=O)n(C2CCC(=O)NC2=O)c2cccc(N3CCC(CO[C@H]4CC[C@H](n5cc(NC(=O)c6cnn7cccnc67)c(C(F)F)n5)CC4)CC3)c21 (some centres unmarked) [I-239]
27 | > 200 nM | > 200 nM | Cn1c(=O)n(C2CCC(=O)NC2=O)c2cccc(N3CCC4(CCN(C[C@H]5CC[C@H](n6cc7cc(NC(=O)c8cncc(C#N)c8)c(C(F)F)cc7n6)CC5)CC4)CC3)c21 (some centres unmarked) [I-187]
28 | > 200 nM | 10 to 100 nM | CN(C[C@H]1CC[C@H](n2cc(NC(=O)c3cnn4ccc(N5CC6(CCCOC6)C5)nc34)c(C(F)F)n2)CC1)C1CCN(c2cccc3c2n(C)c(=O)n3C2CCC(=O)NC2=O)CC1(F)F (some centres unmarked) [I-510]
29 | > 200 nM | > 200 nM | COc1cc2nn([C@H]3CC[C@H](CN4CC(c5cccc6c5n(C)c(=O)n6C5CCC(=O)NC5=O)C4)CC3)cc2cc1NC(=O)c1nc(C(C)(C)F)ccc1OC (some centres unmarked) [I-131]
30 | > 200 nM | > 200 nM | Cn1c(=O)n(C2CCC(=O)NC2=O)c2cccc(C#CCN3CC4CC(C3)N4C[C@H]3CC[C@H](n4cc(NC(=O)c5cnn6ccc(N7C[C@H]8C[C@@H]7CO8)nc56)c(C(F)F)n4)CC3)c21 (some centres unmarked) [I-344]
31 | > 200 nM | > 200 nM | Cn1c(=O)n(C2CCC(=O)NC2=O)c2cccc([C@H]3CCN(C[C@H]4CC[C@H](n5cc6cc(NC(=O)c7cccc(C(F)(F)F)n7)ncc6n5)CC4)C[C@H]3F)c21 (single isomer, unassigned) [I-781]
32 | > 200 nM | < 10 nM | Cc1ccc(-c2nn([C@H]3CC[C@H](CN4CCN(CC#Cc5cccc6c5n(C)c(=O)n6C5CCC(=O)NC5=O)CC4)CC3)cc2NC(=O)c2cnn3cccnc23)nc1 (some centres unmarked) [I-113]
33 | > 200 nM | < 10 nM | Cn1c(=O)n(C2CCC(=O)NC2=O)c2cccc([C@@H]3CCN(C[C@H]4CC[C@H](n5cc6cc(NC(=O)c7cccc(C(F)F)n7)ccc6n5)CC4)C[C@H]3F)c21 (some centres unmarked) [I-629]
34 | > 200 nM | > 200 nM | Cc1cccc(C(=O)Nc2ccc3nn([C@H]4CC[C@H](CN5CC[C@@H](c6cccc7c6n(C)c(=O)n7C6CCC(=O)NC6=O)[C@@H](F)C5)CC4)cc3c2)n1 (some centres unmarked) [I-620]
35 | < 10 nM | > 200 nM | Cn1c(=O)n(C2CCC(=O)NC2=O)c2cccc(C#CCN3CCN(C[C@H]4CC[C@H](n5cc(NC(=O)c6cnn7ccc(N8CCOCC8)nc67)c(C(F)F)n5)CC4)CC3)c21 (some centres unmarked) [I-98]
36 | < 10 nM | > 200 nM | O=C1CCN(c2cncc3c(C#CCOC4CCN(C[C@H]5CC[C@H](n6cc(NC(=O)c7cnn8ccc(N9C[C@H]%10C[C@@H]9CO%10)nc78)c(C(F)F)n6)CC5)CC4)cccc23)C(=O)N1 [I-10]
37 | < 10 nM | < 10 nM | C[C@H]1CN(C[C@H]2CC[C@H](n3cc(NC(=O)c4cnn5ccc(N6C[C@H]7C[C@@H]6CO7)nc45)c(C(F)F)n3)CC2)CC[C@@H]1OCC#Cc1cccc2c1n(C)c(=O)n2C1CCC(=O)NC1=O (some centres unmarked) [I-37]
